# Experimental data taken from patent US20190029257A1, “APPLICATION FOR HERBICIDE-TOLERANT PROTEIN” (BEIJING DABEINONG TECHNOLOGY GROUP CO., LTD., priority 2016, published 2019).
# What was measured:
# Test in all cases: Halosulfuron-methyl tolerance of soybean plants (damage degree)
# Type in all cases: in vivo
# [1] = test system: Gm chloroplastic ALT-1-01 soybean plants; conditions: 34 g ai/ha (1x Hal.); for Average damage % 3 DAT: 3 days after spraying; for Average damage % 7 DAT: 7 days after spraying; for Average damage % 14 DAT: 14 days after spraying; for Average damage % 21 DAT: 21 days after spraying
# Description: (§1) The herbicide tolerance effects of Gm cytoplasmic ALT-1-01 soybean plants, Gm chloroplastic ALT-1-01 soybean plants, Gm cytoplasmic ALT-2-01 soybean plants, Gm chloroplastic ALT-2-01 soybean plants, Gm cytoplasmic ALT-3-01 soybean plants, Gm chloroplastic ALT-3-01 soybean plants and wild-type soybean plants on halosulfuron-methyl were detected (at seedling stage), respectively.
# (§2) Gm cytoplasmic ALT-1-01 soybean plants, Gm chloroplastic ALT-1-01 soybean plants, Gm cytoplasmic ALT-2-01 soybean plants, Gm chloroplastic ALT-2-01 soybean plants, Gm cytoplasmic ALT-3-01 soybean plants, Gm chloroplastic ALT-3-01 soybean plants and wild-type soybean plants were respectively taken and sprayed with halosulfuron-methyl (34 g ai/ha, 1-fold field concentration) and a blank solvent (water). The damage degree caused by the herbicide was measured for each plant according to the leaf curl degree and the growth point damage degree 3 days after spraying (3 DAT), 7 days after spraying (7 DAT), 14 days after spraying (14 DAT) and 21 days after spraying (21 DAT), respectively: considering conditions of leaves being flat as the untreated plants and growth points being intact as having a damage degree of 0%; considering conditions of veins being locally browned, new leaves being malformed and plant growth being slow as having a damage degree of 50%; and considering conditions of veins being purple to whole plant being dead and growth points being browned and dry as having a damage degree of 100%. There were 2 strains in Gm cytoplasmic ALT-1-01 soybean plants in total (S1 and S2), 2 strains in Gm chloroplastic ALT-1-01 soybean plants in total (S3 and S4), 2 strains in Gm cytoplasmic ALT-2-01 soybean plants in total (S5 and S6), 2 strains in Gm chloroplastic ALT-2-01 soybean plants in total (S7 and S8), 2 strains in Gm cytoplasmic ALT-3-01 soybean plants in total (S9 and S10), 2 strains in Gm chloroplastic ALT-3-01 soybean plants in total (S11 and S12), and 1 strain in wild-type soybean plants (CK1) in total; and 10-15 plants were selected from each strain and tested.
# [2] = test system: Gm chloroplastic ALT-2-01 soybean plants; conditions: 34 g ai/ha (1x Hal.); for Average damage % 3 DAT: 3 days after spraying; for Average damage % 7 DAT: 7 days after spraying; for Average damage % 14 DAT: 14 days after spraying; for Average damage % 21 DAT: 21 days after spraying
# Description: as §1, §2
# [3] = test system: Gm cytoplasmic ALT-1-01 soybean plants; conditions: 34 g ai/ha (1x Hal.); for Average damage % 3 DAT: 3 days after spraying; for Average damage % 7 DAT: 7 days after spraying; for Average damage % 14 DAT: 14 days after spraying; for Average damage % 21 DAT: 21 days after spraying
# Description: as §1, §2
# [4] = test system: Gm cytoplasmic ALT-2-01 soybean plants; conditions: 34 g ai/ha (1x Hal.); for Average damage % 3 DAT: 3 days after spraying; for Average damage % 7 DAT: 7 days after spraying; for Average damage % 14 DAT: 14 days after spraying; for Average damage % 21 DAT: 21 days after spraying
# Description: as §1, §2
# [5] = test system: Gm cytoplasmic ALT-3-01 soybean plants; conditions: 34 g ai/ha (1-fold field concentration); for Average damage % 3 DAT: 3 days after spraying; for Average damage % 7 DAT: 7 days after spraying; for Average damage % 14 DAT: 14 days after spraying; for Average damage % 21 DAT: 21 days after spraying
# Description: as §1, §2
# [6] = test system: Gm chloroplastic ALT-3-01 soybean plants; set-up: dose or concentration left out as unconfirmed; conditions: for Average damage % 3 DAT: 3 days after spraying; for Average damage % 7 DAT: 7 days after spraying; for Average damage % 14 DAT: 14 days after spraying; for Average damage % 21 DAT: 21 days after spraying
# Description: as §1
# as §2, with “([…])” for “(34 g ai/ha, 1-fold field concentration)”
# [7] = test system: wild-type soybean plants (CK1)
# Description: as §1
# as §2, with “([…])” for “(34 g ai/ha, 1-fold field concentration)”
structure (smiles),measurement,setting,value
"COC(=O)c1c(Cl)nn(C)c1S(=O)(=O)NC(=O)Nc1nc(OC)cc(OC)n1 [halosulfuron-methyl, 3-chlorine-5-(4,6-dimethoxypyrimidine-2-aminocarbonylaminosulphonyl)-1-methylpyrazole-4-carboxylic acid methyl ester]",Average damage % 3 DAT,[1]; strain S3,10%
same,Average damage % 7 DAT,[1]; strain S3,5%
same,Average damage % 14 DAT,[1]; strain S3,0%
same,Average damage % 21 DAT,[1]; strain S3,0%
same,Average damage % 3 DAT,[1]; strain S4,11%
same,Average damage % 7 DAT,[1]; strain S4,5%
same,Average damage % 14 DAT,[1]; strain S4,0%
same,Average damage % 21 DAT,[1]; strain S4,0%
same,Average damage % 3 DAT,[2]; strain S7,10%
same,Average damage % 7 DAT,[2]; strain S7,4%
same,Average damage % 14 DAT,[2]; strain S7,0%
same,Average damage % 21 DAT,[2]; strain S7,0%
same,Average damage % 3 DAT,[2]; strain S8,9%
same,Average damage % 7 DAT,[2]; strain S8,5%
same,Average damage % 14 DAT,[2]; strain S8,0%
same,Average damage % 21 DAT,[2]; strain S8,0%
same,Average damage % 3 DAT,[3]; strain S1,13%
same,Average damage % 7 DAT,[3]; strain S1,7%
same,Average damage % 14 DAT,[3]; strain S1,0%
same,Average damage % 21 DAT,[3]; strain S1,0%
same,Average damage % 3 DAT,[3]; strain S2,12%
same,Average damage % 7 DAT,[3]; strain S2,6%
same,Average damage % 14 DAT,[3]; strain S2,0%
same,Average damage % 21 DAT,[3]; strain S2,0%
same,Average damage % 3 DAT,[4]; strain S5,14%
same,Average damage % 7 DAT,[4]; strain S5,6%
same,Average damage % 14 DAT,[4]; strain S5,0%
same,Average damage % 21 DAT,[4]; strain S5,0%
same,Average damage % 3 DAT,[4]; strain S6,12%
same,Average damage % 7 DAT,[4]; strain S6,6%
same,Average damage % 14 DAT,[4]; strain S6,0%
same,Average damage % 21 DAT,[4]; strain S6,0%
same,Average damage % 3 DAT,[5]; strain S9,13%
same,Average damage % 7 DAT,[5]; strain S9,6%
same,Average damage % 14 DAT,[5]; strain S9,0%
same,Average damage % 21 DAT,[5]; strain S9,0%
same,Average damage % 3 DAT,[5]; strain S10,12%
same,Average damage % 7 DAT,[5]; strain S10,5%
same,Average damage % 14 DAT,[5]; strain S10,0%
same,Average damage % 21 DAT,[5]; strain S10,0%
same,Average damage % 3 DAT,[6]; strain S11,10%
same,Average damage % 7 DAT,[6]; strain S11,4%
same,Average damage % 14 DAT,[6]; strain S11,0%
same,Average damage % 21 DAT,[6]; strain S11,0%
same,Average damage % 3 DAT,[6]; strain S12,11%
same,Average damage % 7 DAT,[6]; strain S12,5%
same,Average damage % 14 DAT,[6]; strain S12,0%
same,Average damage % 21 DAT,[6]; strain S12,0%
same,tolerance of the plants to the herbicide,"[7]; 34 g ai/ha, summary of Table 3",not tolerant
same,Average damage % 3 DAT,"[7]; strain CK1, 34 g ai/ha (Hal.), 3 days after spraying",51%
same,Average damage % 7 DAT,"[7]; strain CK1, 34 g ai/ha (Hal.), 7 days after spraying",87%
same,Average damage % 14 DAT,"[7]; strain CK1, 34 g ai/ha (Hal.), 14 days after spraying",100%
same,Average damage % 21 DAT,"[7]; strain CK1, 34 g ai/ha (Hal.), 21 days after spraying",100%
